# Experimental data as given in patent US11214803B2, “Modulators of YAP1 expression” (Ionis Pharmaceuticals, Inc., priority 2019, dated 2022).
# Strand notation (5' to 3'): a small letter for the sugar, then the base; units joined by * are phosphorothioate-linked, units joined directly phosphodiester-linked; [ ] holds rarer units or linkages, { } end groups; capitals alone tell only the bases. k = constrained ethyl (cEt); [5mC] = 5-methylcytosine; d = 2'-deoxy (DNA); m = 2'-O-methyl
# System: Yap1 mRNA
# Assay: Antisense inhibition of human Yap1 in SNU-449 cells by modified oligonucleotides, single dose (Example 5, RTS36584)
# Assay type: cell-based
# Conditions: Table 45; Yap1 mRNA as percent of untreated control, SNU-449 cells, single dose
# Outline: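 Values are % of untreated control: Yap1 mRNA by quantitative RT-PCR (RTS36584), normalized to RIBOGREEN total RNA. Oligonucleotides were dosed at 2,000 nM, free uptake, in SNU-449 cells, with roughly 48 h exposure before RNA isolation.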
row,Substance,YAP1 (% UTC)
1,1198926 (kG*k[5mC]*dT*dT*dT*dG*dG*dA*dA*dG*dA*kT*d[5mC]*kT*dG*kA; antisense) [Compound 1198926],45
2,1198927 (kT*kG*d[5mC]*dT*dT*dT*dG*dG*dA*dA*dG*kA*dT*k[5mC]*dT*kG; antisense) [Compound 1198927],50
3,1198928 (kG*kT*dG*d[5mC]*dT*dT*dT*dG*dG*dA*dA*kG*dA*kT*d[5mC]*kT; antisense) [Compound 1198928],28
4,1198929 (kA*kG*dT*dG*d[5mC]*dT*dT*dT*dG*dG*dA*kA*dG*kA*dT*k[5mC]) [Compound 1198929],43
5,1198930 (kA*kT*dA*dG*dT*dG*d[5mC]*dT*dT*dT*dG*kG*dA*kA*dG*kA; antisense) [Compound 1198930],68
6,1198931 (kA*kG*dG*dA*dT*dG*d[5mC]*dA*dT*dG*dG*kT*dT*kT*dT*kT; antisense) [Compound 1198931],47
7,1198932 (kT*kT*dA*dG*dG*dA*dT*dG*d[5mC]*dA*dT*kG*dG*kT*dT*kT; antisense) [Compound 1198932],35
8,1198933 (kT*kT*dT*dA*dG*dG*dA*dT*dG*d[5mC]*dA*kT*dG*kG*dT*kT; antisense) [Compound 1198933],69
9,1198934 (kA*kT*dT*dT*dA*dG*dG*dA*dT*dG*d[5mC]*kA*dT*kG*dG*kT; antisense) [Compound 1198934],56
10,1198935 (kG*kA*dT*dT*dT*dA*dG*dG*dA*dT*dG*k[5mC]*dA*kT*dG*kG; antisense) [Compound 1198935],18
11,1198936 (kA*kG*dA*dT*dT*dT*dA*dG*dG*dA*dT*kG*d[5mC]*kA*dT*kG; antisense) [Compound 1198936],38
12,1198937 (k[5mC]*kA*dG*dA*dT*dT*dT*dA*dG*dG*dA*kT*dG*k[5mC]*dA*kT; antisense) [Compound 1198937],48
13,1198938 (kT*k[5mC]*dA*dG*dA*dT*dT*dT*dA*dG*dG*kA*dT*kG*d[5mC]*kA; antisense) [Compound 1198938],59
14,1198941 (kT*kT*dA*dT*dA*dT*dG*dG*dT*dT*dT*kT*dG*kT*dG*kT; antisense) [Compound 1198941],35
15,1198942 (k[5mC]*kT*dT*dA*dT*dA*dT*dG*dG*dT*dT*kT*dT*kG*dT*kG; antisense) [Compound 1198942],42
16,1198943 (kT*k[5mC]*dT*dT*dA*dT*dA*dT*dG*dG*dT*kT*dT*kT*dG*kT; antisense) [Compound 1198943],31
17,1198944 (k[5mC]*kT*d[5mC]*dT*dT*dA*dT*dA*dT*dG*dG*kT*dT*kT*dT*kG; antisense) [Compound 1198944],34
18,1198945 (kA*k[5mC]*dT*d[5mC]*dT*dT*dA*dT*dA*dT*dG*kG*dT*kT*dT*kT; antisense) [Compound 1198945],48
19,1198946 (kA*kA*d[5mC]*dT*d[5mC]*dT*dT*dA*dT*dA*dT*kG*dG*kT*dT*kT; antisense) [Compound 1198946],72
20,1198947 (k[5mC]*kA*dA*d[5mC]*dT*d[5mC]*dT*dT*dA*dT*dA*kT*dG*kG*dT*kT; antisense) [Compound 1198947],88
21,1198948 (kG*kA*d[5mC]*dA*dA*d[5mC]*dT*d[5mC]*dT*dT*dA*kT*dA*kT*dG*kG; antisense) [Compound 1198948],96
22,1198949 (kA*kT*dT*dG*d[5mC]*dA*dA*dT*d[5mC]*dT*dG*kT*d[5mC]*kT*dG*kA; antisense) [Compound 1198949],61
23,1198950 (kA*kT*dA*dT*dT*dG*d[5mC]*dA*dA*dT*d[5mC]*kT*dG*kT*d[5mC]*kT; antisense) [Compound 1198950],85
24,1198951 (kA*kA*dT*dA*dT*dT*dG*d[5mC]*dA*dA*dT*k[5mC]*dT*kG*dT*k[5mC]; antisense) [Compound 1198951],81

row,Substance,YAP1 (% UTC)
1,1198952 (kT*kA*dA*dT*dA*dT*dT*dG*d[5mC]*dA*kA*kT*d[5mC]*kT*dG*kT; antisense) [Compound 1198952],77
2,1198953 (kG*kT*dA*dA*dT*dA*dT*dT*dG*d[5mC]*dA*kA*dT*k[5mC]*dT*kG; antisense) [Compound 1198953],58
3,1198954 (kT*kG*dT*dA*dA*dT*dA*dT*dT*dG*d[5mC]*kA*dA*kT*d[5mC]*kT; antisense) [Compound 1198954],94
4,1198955 (kA*kT*dG*dT*dA*dA*dT*dA*dT*dT*dG*k[5mC]*dA*kA*dT*k[5mC]; antisense) [Compound 1198955],92
5,1198956 (kT*kA*dT*dG*dT*dA*dA*dT*dA*dT*dT*kG*d[5mC]*kA*dA*kT; antisense) [Compound 1198956],76
6,1198957 (kT*kT*dT*dA*dT*dG*dT*dA*dA*dT*dA*kT*dT*kG*d[5mC]*kA; antisense) [Compound 1198957],81
7,1198958 (kT*kG*dT*dA*dT*dG*dT*d[5mC]*dA*dG*dA*kA*dG*kA*dG*kT; antisense) [Compound 1198958],12
8,1198959 (kA*kG*dT*dG*dT*dA*dT*dG*dT*d[5mC]*dA*kG*dA*kA*dG*kA; antisense) [Compound 1198959],8
9,1198960 (kA*kA*dG*dT*dG*dT*dA*dT*dG*dT*d[5mC]*kA*dG*kA*dA*kG; antisense) [Compound 1198960],6
10,1198961 (kA*kA*dA*dG*dT*dG*dT*dA*dT*dG*dT*k[5mC]*dA*kG*dA*kA; antisense) [Compound 1198961],12
11,1198962 (kT*kA*dA*dA*dG*dT*dG*dT*dA*dT*dG*kT*d[5mC]*kA*dG*kA; antisense) [Compound 1198962],52
12,1198963 (kT*kT*dA*dA*dA*dG*dT*dG*dT*dA*dT*kG*dT*k[5mC]*dA*kG; antisense) [Compound 1198963],27
13,1198964 (kT*kT*dT*dA*dA*dA*dG*dT*dG*dT*dA*kT*dG*kT*d[5mC]*kA; antisense) [Compound 1198964],59
14,1198965 (k[5mC]*kT*dT*dT*dA*dA*dA*dG*dT*dG*dT*kA*dT*kG*dT*k[5mC]; antisense) [Compound 1198965],95
15,1198967 (kT*kA*dA*dG*dG*dT*dT*dT*d[5mC]*d[5mC]*d[5mC]*kA*dG*kA*dT*kT; antisense) [Compound 1198967],65
16,1198968 (kA*kG*dT*dA*dA*dG*dG*dT*dT*dT*d[5mC]*k[5mC]*d[5mC]*kA*dG*kA; antisense) [Compound 1198968],57
17,1198969 (kA*kA*dG*dT*dA*dA*dG*dG*dT*dT*dT*k[5mC]*d[5mC]*k[5mC]*dA*kG; antisense) [Compound 1198969],31
18,1198970 (kT*kA*dA*dG*dT*dA*dA*dG*dG*dT*dT*kT*d[5mC]*k[5mC]*d[5mC]*kA; antisense) [Compound 1198970],29
19,1198971 (k[5mC]*kT*dA*dA*dG*dT*dA*dA*dG*dG*dT*kT*dT*k[5mC]*d[5mC]*k[5mC]; antisense) [Compound 1198971],31
20,1198972 (kA*k[5mC]*dT*dA*dA*dG*dT*dA*dA*dG*dG*kT*dT*kT*d[5mC]*k[5mC]; antisense) [Compound 1198972],46
21,1198973 (kG*kA*d[5mC]*dT*dA*dA*dG*dT*dA*dA*dG*kG*dT*kT*dT*k[5mC]; antisense) [Compound 1198973],53
22,1198974 (kA*kG*dA*d[5mC]*dT*dA*dA*dG*dT*dA*dA*kG*dG*kT*dT*kT; antisense) [Compound 1198974],73
23,1198975 (kT*kT*dA*dG*dA*d[5mC]*dT*dA*dA*dG*dT*kA*dA*kG*dG*kT; antisense) [Compound 1198975],52

# Same assay, conditions: Table 46; Yap1 mRNA as percent of untreated control, SNU-449 cells, single dose
row,Substance,YAP1 (% UT)
1,1198966 (kA*kA*d[5mC]*dT*dT*dT*dA*dA*dA*dG*dT*kG*dT*kA*dT*kG) [Compound 1198966],78

# Same assay, conditions: Table 51; Yap1 mRNA remaining as percent of untreated control (UT), SNU-449 cells, single dose
row,Substance,YAP1 (% UT)
1,1200784 (kT*kG*kT*d[5mC]*dT*mC*dA*dT*dG*d[5mC]*d[5mC]*dT*dT*kA*kT*kA; antisense) [Compound 1200784],19
2,1200785 (kA*kT*kT*dG*dT*mC*dT*d[5mC]*dA*dT*dG*d[5mC]*d[5mC]*kT*kT*kA; antisense) [Compound 1200785],15
3,1200786 (kA*kA*kT*dT*dG*mU*d[5mC]*dT*d[5mC]*dA*dT*dG*d[5mC]*k[5mC]*kT*kT; antisense) [Compound 1200786],21
4,1200787 (kA*kA*kA*dT*dT*mG*dT*d[5mC]*dT*d[5mC]*dA*dT*dG*k[5mC]*k[5mC]*kT) [Compound 1200787],38
